Assay results from ChEMBL document CHEMBL1201862, “PubChem BioAssay data set” (2004).
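Growth conditions: 96-well plates. Treatment: test compound, 48 hours, 5 concentrations. Analysis: linear interpolation between bracketing concentrations; unreached endpoints set to highest concentration. GI50: concentration for 50% inhibition of growth.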 Active and inactive are the calls of the source. No stated cut-off is given here; in the data, active = GI50 up to about 1.1 µM and inactive = higher.

Assays:
Experiment in all cases: NCI-60 cell line screen, 48 h
OVCAR-5 = tested on: OVCAR-5
A549 = tested on: A549
OVCAR-4 = tested on: OVCAR-4
DU-145 = tested on: DU-145
SK-OV-3 = tested on: SK-OV-3
HL-60 = tested on: HL-60
SR = tested on: SR
MCF7 = tested on: MCF7
OVCAR-8 = tested on: OVCAR-8
MDA-MB-231 = tested on: MDA-MB-231
UACC-257 = tested on: UACC-257
OVCAR-3 = tested on: OVCAR-3
PC-3 = tested on: PC-3
NCI-H460 = tested on: NCI-H460
MDA-MB-435 = tested on: MDA-MB-435
UACC-62 = tested on: UACC-62
COLO 205 = tested on: COLO 205
786-0 = tested on: 786-0

Structure (SMILES)	GI50 (OVCAR-5)	GI50 (A549)	GI50 (OVCAR-4)	GI50 (DU-145)	GI50 (SK-OV-3)	GI50 (HL-60)	GI50 (SR)	GI50 (MCF7)	GI50 (OVCAR-8)	GI50 (MDA-MB-231)	GI50 (UACC-257)	GI50 (OVCAR-3)	GI50 (PC-3)	GI50 (NCI-H460)	GI50 (MDA-MB-435)	GI50 (UACC-62)	GI50 (COLO 205)	GI50 (786-0)
COc1ccc2cc(C(=O)CCC(=O)O)ccc2c1	> 100 µM (inactive)	> 100 µM (inactive)	> 100 µM (inactive)	> 100 µM (inactive)	> 100 µM (inactive)	> 100 µM (inactive)	> 100 µM (inactive)	> 100 µM (inactive)	> 100 µM (inactive)	> 100 µM (inactive)	> 100 µM (inactive)	> 100 µM (inactive)	> 100 µM (inactive)	> 100 µM (inactive)	> 100 µM (inactive)	> 100 µM (inactive)	> 100 µM (inactive)	22.4 µM (inactive)
Fc1ccc2nc3n(c2c1)C(c1c(Cl)cccc1Cl)SC3 (stereo not drawn)	> 100 µM (inactive)	> 100 µM (inactive)	> 100 µM (inactive)	> 100 µM (inactive)	> 100 µM (inactive)		4.3 µM (inactive)	> 100 µM (inactive)	> 100 µM (inactive)	> 100 µM (inactive)	> 100 µM (inactive)	> 100 µM (inactive)	> 100 µM (inactive)	> 100 µM (inactive)	> 100 µM (inactive)	> 100 µM (inactive)	> 100 µM (inactive)	> 100 µM (inactive)
CC(=O)OC/C=C/Cn1nc(Br)c(=O)[nH]c1=O	> 100 µM (inactive)	> 100 µM (inactive)	> 100 µM (inactive)	> 100 µM (inactive)		> 100 µM (inactive)	> 100 µM (inactive)	> 100 µM (inactive)	> 100 µM (inactive)	> 100 µM (inactive)	> 100 µM (inactive)	> 100 µM (inactive)	> 100 µM (inactive)	> 100 µM (inactive)	> 100 µM (inactive)	> 100 µM (inactive)	> 100 µM (inactive)	> 100 µM (inactive)
CC(C(=O)OCc1ccccc1)(c1ccco1)N1C(=O)OC(c2ccccc2)C1c1ccccc1 (stereo not drawn)	> 100 µM (inactive)	> 100 µM (inactive)	> 100 µM (inactive)	> 100 µM (inactive)	> 100 µM (inactive)	3.81 µM (inactive)	> 34.8 µM (inactive)	> 100 µM (inactive)	> 100 µM (inactive)	> 30.5 µM (inactive)	> 100 µM (inactive)	> 100 µM (inactive)	6.01 µM (inactive)	26.1 µM (inactive)	> 100 µM (inactive)	97.1 µM (inactive)	> 100 µM (inactive)	> 100 µM (inactive)
COC(=O)C1CC23C=CCN4CC(C2C)C2(c5ccccc5NC12)C43 (stereo not drawn)	> 100 µM (inactive)	> 100 µM (inactive)	> 100 µM (inactive)	> 100 µM (inactive)	> 100 µM (inactive)	64 µM (inactive)	> 100 µM (inactive)	> 100 µM (inactive)	> 100 µM (inactive)	> 100 µM (inactive)	> 100 µM (inactive)	> 100 µM (inactive)	> 100 µM (inactive)	> 100 µM (inactive)	> 100 µM (inactive)	> 100 µM (inactive)	> 100 µM (inactive)	> 100 µM (inactive)
N[C@H]1CCc2c1nc1c(c2-c2ccccc2)CC[C@@H]1N	18.3 µM (inactive)	34 µM (inactive)	50.8 µM (inactive)	24.2 µM (inactive)		15.7 µM (inactive)	31.5 µM (inactive)	21.8 µM (inactive)	39.8 µM (inactive)	18.3 µM (inactive)	> 10 µM (inactive)		15.3 µM (inactive)	25.6 µM (inactive)	15.8 µM (inactive)		20.6 µM (inactive)	14.7 µM (inactive)
CC(=O)Nc1ccc(S(=O)(=O)/N=C2\C=CC(=O)c3ccccc32)cc1	8.55 µM (inactive)	9.98 µM (inactive)	1.87 µM (inactive)	7.4 µM (inactive)	16.5 µM (inactive)	0.481 µM (active)	2.25 µM (inactive)	5.01 µM (inactive)	2.8 µM (inactive)	2.78 µM (inactive)	6.22 µM (inactive)	2.45 µM (inactive)	3.28 µM (inactive)	12.1 µM (inactive)	1.84 µM (inactive)	5.51 µM (inactive)	13.3 µM (inactive)	9.25 µM (inactive)
CCC(/C=C/c1ccccc1)=N\Nc1ccc(Cl)c(Cl)c1	66.1 µM (inactive)	39.7 µM (inactive)		89.1 µM (inactive)	27.4 µM (inactive)	27.8 µM (inactive)	34.8 µM (inactive)	28.7 µM (inactive)	16 µM (inactive)	17.8 µM (inactive)	31.6 µM (inactive)	25.7 µM (inactive)	55.6 µM (inactive)	33.3 µM (inactive)	33.3 µM (inactive)	13.9 µM (inactive)	24.9 µM (inactive)	34.4 µM (inactive)
